# Patent publication US20220401564A1 (DANA-FARBER CANCER INSTITUTE, INC., priority 2019, published 2022)
# Columns and labels:
# VHL = biological target: T1, VHL (Homo sapiens, UniProt P40337); assay: Cellular VHL engagement assay (BRD4BD2-GFP / mCherry reporter cells); format: cell-based; settings: with 250 nM AT1, 5 h
# T1 construct: Cells stably expressing the BRD4BD2-GFP with mCherry reporter (40) were seeded; endogenous in cells
# Method: Cells stably expressing the BRD4BD2-GFP with mCherry reporter (40) were seeded at 30-50% confluency in 384-well plates with 50 μL per well of FluoroBrite™ DMEM media (Thermo Fisher Scientific, A18967) supplemented with 10% FBS a day before compound treatment. Compounds and 250 nM AT1((2S,4R)-1-(2R)-2-Acetamido-3-[[6-[2-[(6S)-4-(4-chlorophenyl)-2,3,9-trimethyl-6H-thieno[3,2-f][1,2,4]triazolo[4,3-a][1,4]diazepin-6-yl]acetamido]hexyl]thio]-3-methylbutanoyl]-4-hydroxy-N-[4-(4-methylthiazol-5-yl)benzyl)pyrrolidinine-2-carboxamide) were dispensed using a D300e Digital Dispenser (HP), normalized to 0.5% DMSO, and incubated with the cells for 5 h. The assay plate was imaged immediately using an Acumen® High Content Imager (TTP Labtech) with 488 nm and 561 nm lasers in a […] grid per well format. The resulting images were analyzed using CellProfiler™.
# A series of image analysis steps (an ‘image analysis pipeline’) was constructed. First, the red and green channels were aligned and cropped to target the middle of each well (to avoid analysis of the heavily clumped cells at the edges). A background illumination function was calculated for both red and green channels of each well individually and subtracted to correct for illumination variations across the 384-well plate from various sources of error. An additional step was then applied to the green channel to suppress the analysis of large auto fluorescent artifacts and enhance the analysis of cell specific fluorescence by way of selecting for objects under a given size (30 A.U.) and with a given shape (speckles). mCherry-positive cells were then identified in the red channel by filtering for objects 8-60 pixels in diameter and by using intensity to distinguish between clumped objects. The green channel was then segmented into GFP positive and negative areas and objects were labeled as GFP positive if at least 40% of it overlapped with a GFP positive area. The fraction of GFP-positive cells/mCherry-positive cells in each well was then calculated, and the green and red images were rescaled for visualization.
# HDAC8 = biological target: T2, HDAC8 (Homo sapiens, UniProt Q9BY41); assay: HDAC enzymatic assay (Reaction Biology), HDAC8 substrate; format: biochemical; parameters: purchased Reaction Biology
# T2 sequence (Q9BY41 1-377): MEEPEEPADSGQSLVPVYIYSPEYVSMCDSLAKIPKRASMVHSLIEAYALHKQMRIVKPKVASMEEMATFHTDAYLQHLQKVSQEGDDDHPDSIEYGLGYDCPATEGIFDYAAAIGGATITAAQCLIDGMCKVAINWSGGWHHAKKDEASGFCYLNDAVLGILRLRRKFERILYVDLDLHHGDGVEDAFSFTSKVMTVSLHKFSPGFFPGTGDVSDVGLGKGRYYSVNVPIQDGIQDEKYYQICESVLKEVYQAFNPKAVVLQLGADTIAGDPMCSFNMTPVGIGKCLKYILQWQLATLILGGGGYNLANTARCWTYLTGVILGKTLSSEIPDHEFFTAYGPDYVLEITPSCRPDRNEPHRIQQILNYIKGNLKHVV
# Method: (§1) Compounds 2 and 9 were tested in an enzymatic assay from Reaction Biology® against HDAC isoforms.
# (§2) Base Reaction buffer: 50 mM Tris-HCl, pH8.0, 137 mM NaCl, 2.7 mM KCl, and 1 mM MgCl2. Add fresh: 1 mg/ml BSA, 1% DMSO
# (HDAC8 only substrate: 50 μM, Arg-His-Lys(Ac)-Lys(Ac))-AMC
# (§3) 1. Delivered 2X enzyme in wells of reaction plate except in the control wells and added buffer to control wells. 2. Delivered compounds in 100% DMSO into the enzyme mixture by Acoustic technology (Echo550; nanoliter range). Spin down and pre-incubation. 3. Delivered 2X Substrate Mixture (Fluorogenic HDAC Substrate and co-factor if applicable) in all reaction wells to initiate the reaction. Spin and shake. 4. Incubated for 30 min for Class 2A, 1 h for HDAC1, 2, 3, and 6, and 2 h for the rest of HDAC isoforms and SIRTs at 30° C. with seal.
# (§4) 5. Added Developer with Trichostatin A (or Nicotinamide for SIRTs) to stop the reaction and to generate fluorescent color. 6. The fluorescence that was generated was detected with excitation (Ex) at […] and emission (Em) at 460 nM by the EnVision Multilabel Plate Reader (PerkinElmer®, Santa Clara, Calif., USA).
# (§5) IC50 values were derived from a 10-dose response curve. As shown in Tables 1-2, the addition of a linker and CRBN targeting group altered the isoform selectivity of the SAHA-based degrader compounds.
# HDAC1 = biological target: T3, HDAC1 (Homo sapiens, UniProt Q13547); assay: HDAC enzymatic assay (Reaction Biology), fluorogenic substrate; format: biochemical
# T3 construct: purchased Reaction Biology
# Method: as §1, §2
# (§6) Fluorogenic HDAC General Substrate (HDAC1, HDAC2, HDAC3, HDAC6, HDAC10, and HDAC11): 50 μM, Arg-His-Lys-Lys(Ac)-AMC
# as §3, §4, §5
# HDAC2 = biological target: T4, HDAC2 (Homo sapiens, UniProt Q92769); assay: as above; format: biochemical
# T4 construct: purchased Reaction Biology
# Method: as §1, §2, §6, §3, §4, §5
# HDAC6 = biological target: T5, HDAC6 (Homo sapiens, UniProt Q9UBN7); assay: as above; format: biochemical; parameters: purchased Reaction Biology
# T5 sequence (Q9UBN7 1-1215): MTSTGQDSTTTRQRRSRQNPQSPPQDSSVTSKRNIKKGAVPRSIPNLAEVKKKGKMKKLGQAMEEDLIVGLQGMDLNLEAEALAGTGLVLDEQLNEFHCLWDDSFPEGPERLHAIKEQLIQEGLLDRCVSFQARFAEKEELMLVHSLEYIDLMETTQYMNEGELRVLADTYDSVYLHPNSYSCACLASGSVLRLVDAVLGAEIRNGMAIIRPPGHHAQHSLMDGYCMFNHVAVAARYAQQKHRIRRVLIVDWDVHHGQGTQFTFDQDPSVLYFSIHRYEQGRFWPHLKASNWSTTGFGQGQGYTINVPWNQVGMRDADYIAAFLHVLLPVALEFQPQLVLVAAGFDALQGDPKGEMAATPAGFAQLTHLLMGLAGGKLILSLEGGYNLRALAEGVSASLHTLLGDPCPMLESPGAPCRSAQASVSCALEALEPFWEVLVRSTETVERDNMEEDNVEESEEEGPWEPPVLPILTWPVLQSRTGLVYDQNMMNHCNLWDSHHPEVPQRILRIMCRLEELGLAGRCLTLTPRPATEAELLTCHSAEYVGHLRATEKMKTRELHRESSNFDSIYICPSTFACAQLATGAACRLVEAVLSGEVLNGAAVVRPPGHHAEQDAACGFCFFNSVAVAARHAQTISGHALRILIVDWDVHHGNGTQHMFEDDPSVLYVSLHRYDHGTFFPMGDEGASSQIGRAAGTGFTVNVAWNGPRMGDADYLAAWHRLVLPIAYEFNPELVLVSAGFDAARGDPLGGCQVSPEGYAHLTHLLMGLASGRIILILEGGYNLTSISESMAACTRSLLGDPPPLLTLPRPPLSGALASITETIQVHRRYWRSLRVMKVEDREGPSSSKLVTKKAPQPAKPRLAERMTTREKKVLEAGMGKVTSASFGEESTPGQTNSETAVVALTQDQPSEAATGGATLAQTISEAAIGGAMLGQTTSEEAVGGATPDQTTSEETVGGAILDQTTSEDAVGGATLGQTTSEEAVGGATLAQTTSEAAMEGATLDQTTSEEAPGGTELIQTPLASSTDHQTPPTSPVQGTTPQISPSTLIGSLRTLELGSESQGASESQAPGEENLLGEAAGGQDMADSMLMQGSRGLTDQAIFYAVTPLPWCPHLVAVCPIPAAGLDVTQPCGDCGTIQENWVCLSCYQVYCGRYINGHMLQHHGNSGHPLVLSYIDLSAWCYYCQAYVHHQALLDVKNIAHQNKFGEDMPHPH
# Method: as §1, §2, §6, §3, §4, §5
# HDAC3 = HDAC3 (Homo sapiens, UniProt O15379); assay: as above; format: biochemical; parameters: purchased Reaction Biology
# Method: as §1, §2, §6, §3, §4, §5
# T3 sequence (Q13547 whole entry): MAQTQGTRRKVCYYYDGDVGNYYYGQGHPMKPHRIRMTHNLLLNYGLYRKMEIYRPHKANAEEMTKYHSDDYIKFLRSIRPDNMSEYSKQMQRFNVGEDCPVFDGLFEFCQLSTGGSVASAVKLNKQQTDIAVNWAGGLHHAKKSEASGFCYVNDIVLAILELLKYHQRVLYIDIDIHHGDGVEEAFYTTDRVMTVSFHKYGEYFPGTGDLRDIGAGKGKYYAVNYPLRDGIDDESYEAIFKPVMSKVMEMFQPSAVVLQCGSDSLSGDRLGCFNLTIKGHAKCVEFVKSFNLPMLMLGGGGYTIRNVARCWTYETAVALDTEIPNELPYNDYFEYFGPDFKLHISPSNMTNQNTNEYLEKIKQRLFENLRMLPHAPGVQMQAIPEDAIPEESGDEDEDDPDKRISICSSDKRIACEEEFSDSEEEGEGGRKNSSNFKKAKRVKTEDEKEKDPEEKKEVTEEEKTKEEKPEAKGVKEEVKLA
# T4 sequence (Q92769 whole entry): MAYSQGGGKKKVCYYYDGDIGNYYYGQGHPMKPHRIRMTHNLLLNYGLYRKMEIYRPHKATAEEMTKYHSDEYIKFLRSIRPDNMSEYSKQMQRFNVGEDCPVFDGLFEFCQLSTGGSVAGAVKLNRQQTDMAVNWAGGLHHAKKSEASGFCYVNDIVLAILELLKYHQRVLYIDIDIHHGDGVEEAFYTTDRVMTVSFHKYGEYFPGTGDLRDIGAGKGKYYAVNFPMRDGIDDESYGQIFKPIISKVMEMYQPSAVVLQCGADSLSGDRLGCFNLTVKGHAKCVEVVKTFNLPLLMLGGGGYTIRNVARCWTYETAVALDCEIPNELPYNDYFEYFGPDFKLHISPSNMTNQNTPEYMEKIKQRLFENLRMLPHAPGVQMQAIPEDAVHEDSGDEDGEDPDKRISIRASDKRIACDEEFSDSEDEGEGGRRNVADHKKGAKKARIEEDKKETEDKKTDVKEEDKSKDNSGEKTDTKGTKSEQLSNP
# Chain of HDAC3 (O15379 whole entry): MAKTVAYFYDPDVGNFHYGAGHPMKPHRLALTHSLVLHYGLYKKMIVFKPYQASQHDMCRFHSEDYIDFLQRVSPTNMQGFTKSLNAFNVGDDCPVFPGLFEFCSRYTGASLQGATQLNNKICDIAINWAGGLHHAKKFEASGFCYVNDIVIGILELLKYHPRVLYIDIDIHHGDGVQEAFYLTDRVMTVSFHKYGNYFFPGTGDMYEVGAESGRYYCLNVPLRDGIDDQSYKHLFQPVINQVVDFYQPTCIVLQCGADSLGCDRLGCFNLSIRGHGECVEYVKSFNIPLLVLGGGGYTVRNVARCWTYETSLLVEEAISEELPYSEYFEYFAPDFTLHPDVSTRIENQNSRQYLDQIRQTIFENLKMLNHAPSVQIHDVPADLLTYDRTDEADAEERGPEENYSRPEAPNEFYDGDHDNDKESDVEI
# Chain of HDAC3 (Q9Y618 395-489 partner limits assumed): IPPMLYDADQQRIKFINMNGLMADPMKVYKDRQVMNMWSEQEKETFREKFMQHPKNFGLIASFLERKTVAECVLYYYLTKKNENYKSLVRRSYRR
# T1 sequence (P40337 whole entry, species assumed): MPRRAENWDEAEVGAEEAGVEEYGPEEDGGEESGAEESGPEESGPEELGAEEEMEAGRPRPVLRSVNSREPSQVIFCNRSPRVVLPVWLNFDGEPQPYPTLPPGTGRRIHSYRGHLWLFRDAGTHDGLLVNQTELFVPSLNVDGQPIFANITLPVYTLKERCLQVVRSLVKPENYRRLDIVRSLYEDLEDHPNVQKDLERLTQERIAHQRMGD
structure (smiles),measurement,setting,value
"Cc1ncsc1-c1ccc([C@H](C)NC(=O)[C@@H]2C[C@@H](O)CN2C(=O)[C@@H](NC(=O)CCOCCN(CCc2c[nH]c3ccccc23)Cc2ccc(/C=C/C(=O)Nc3ccccc3N)cc2)C(C)(C)C)cc1 [Compound 9, (2S,4R)-1-((S)-2-(3-(2-((2-(1H-indol-3-yl)ethyl)(4-((E)-3-((2-aminophenyl)amino)-3-oxoprop-1-en-1-yl)benzyl)amino)ethoxy)propanamido)-3,3-dimethylbutanoyl)-4-hydroxy-N—((S)-1-(4-(4-methylthiazol-5-yl)phenyl)ethyl)pyrrolidine-2-carboxamide]",IC50,VHL,298 µM
same,inhibition of HDAC8 deacetylase activity in vitro (in words),HDAC8,did not inhibit
same,inhibition of HDAC1 deacetylase activity in vitro (in words),HDAC1,moderate inhibition
same,IC50,"HDAC1; 10-dose response curve, read-out: Compound IC50 (M), HDAC1",9.5e-06 M
same,inhibition of HDAC2 deacetylase activity in vitro (in words),HDAC2,moderate inhibition
same,IC50,"HDAC2; 10-dose response curve, read-out: Compound IC50 (M), HDAC2",1.15e-05 M
same,inhibition of HDAC6 activity in vitro (in words),HDAC6,did not inhibit
same,inhibition of HDAC3 deacetylase activity in vitro (in words),HDAC3,moderate inhibition
same,IC50,"HDAC3; 10-dose response curve, read-out: Compound IC50 (M), HDAC3",1.12e-05 M
